Source: ChEMBL document CHEMBL4118237 (Bioorg Med Chem, 2018)
Calls of active or inactive are those of the source. No cut-off for these calls is given here. *1 amine or outer side, *2 acyl side, *3 side chain or, on linkers, in order; H or OH if unused. Where a SMILES comes first, the peptide text is derived from it. Bridges are numbered along the chain shown (N, C = ends). Roman numbers before positions name the chains, in order. [ ]: non-standard residue; d: D form. Piperazine(1,4-diyl) = C1CN([*:2])CCN1[*:1]; Dmt = Cc1cc(O)cc(C)c1C[C@H](N)C(=O)O; Cystamine = C(CSSCCN[*:2])N[*:1]

How the values were obtained:
[1] = target: T1, Mu-type opioid receptor (Homo sapiens, UniProt P35372); assay: Agonist activity at MOR (unknown origin) expressed in HEK cells assessed as reduction in cAMP accumulation by split luciferase assay relative to DAMGO; assay type: functional, cell-based
[2] = target: T2, Kappa-type opioid receptor (Homo sapiens, UniProt P41145); assay: Agonist activity at KOR (unknown origin) expressed in HEK cells assessed as reduction in cAMP accumulation by split luciferase assay relative to salvinorin A; assay type: functional, cell-based
[3] = target: T2, Kappa-type opioid receptor; assay: Antagonist activity at KOR (unknown origin) expressed in HEK cells assessed as cAMP accumulation by split luciferase assay; assay type: functional, cell-based
[4] = target: T3, Delta-type opioid receptor (Homo sapiens, UniProt P41143); assay: Antagonist activity at DOR (unknown origin) expressed in HEK cells assessed as cAMP accumulation by split luciferase assay; assay type: functional, cell-based
[5] = target: T1, Mu-type opioid receptor; assay: Antagonist activity at MOR (unknown origin) expressed in HEK cells assessed as cAMP accumulation by split luciferase assay; assay type: functional, cell-based
[6] = target: T3, Delta-type opioid receptor; assay: Agonist activity at DOR (unknown origin) expressed in HEK cells assessed as reduction in cAMP accumulation by split luciferase assay relative to DADLE; assay type: functional, cell-based
[7] = target: T2, Kappa-type opioid receptor; assay: Binding affinity to KOR (unknown origin)
[8] = target: T2, Kappa-type opioid receptor; assay: Agonist activity at KOR (unknown origin) expressed in HEK cells assessed as reduction in cAMP accumulation by split luciferase assay; assay type: functional, cell-based
[9] = target: T3, Delta-type opioid receptor; assay: Agonist activity at DOR (unknown origin) expressed in HEK cells assessed as reduction in cAMP accumulation by split luciferase assay; assay type: functional, cell-based
[10] = target: T1, Mu-type opioid receptor; assay: Agonist activity at MOR (unknown origin) expressed in HEK cells assessed as reduction in cAMP accumulation by split luciferase assay; assay type: functional, cell-based
[11] = target: T3, Delta-type opioid receptor; assay: Displacement of [3H]DADLE from DOR (unknown origin) expressed in HEK cells; assay type: cell-based
[12] = target: T1, Mu-type opioid receptor; assay: Displacement of [3H]DAMGO from MOR (unknown origin) expressed in HEK cells; assay type: cell-based
[13] = target: T2, Kappa-type opioid receptor; assay: Displacement of [3H]U69593 from KOR (unknown origin) expressed in HEK cells; assay type: cell-based

T1 sequence (P35372 whole entry): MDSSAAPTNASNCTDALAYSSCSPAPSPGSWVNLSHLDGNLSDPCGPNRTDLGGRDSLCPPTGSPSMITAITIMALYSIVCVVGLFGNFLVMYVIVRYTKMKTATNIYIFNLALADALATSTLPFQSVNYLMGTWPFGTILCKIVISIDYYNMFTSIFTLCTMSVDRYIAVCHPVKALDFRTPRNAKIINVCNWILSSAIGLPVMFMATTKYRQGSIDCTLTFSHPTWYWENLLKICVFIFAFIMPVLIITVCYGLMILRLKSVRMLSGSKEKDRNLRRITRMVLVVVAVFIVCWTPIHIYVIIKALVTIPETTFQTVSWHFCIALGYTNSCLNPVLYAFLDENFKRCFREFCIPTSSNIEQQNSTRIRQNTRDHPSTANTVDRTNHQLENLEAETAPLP
T2 sequence (P41145 whole entry): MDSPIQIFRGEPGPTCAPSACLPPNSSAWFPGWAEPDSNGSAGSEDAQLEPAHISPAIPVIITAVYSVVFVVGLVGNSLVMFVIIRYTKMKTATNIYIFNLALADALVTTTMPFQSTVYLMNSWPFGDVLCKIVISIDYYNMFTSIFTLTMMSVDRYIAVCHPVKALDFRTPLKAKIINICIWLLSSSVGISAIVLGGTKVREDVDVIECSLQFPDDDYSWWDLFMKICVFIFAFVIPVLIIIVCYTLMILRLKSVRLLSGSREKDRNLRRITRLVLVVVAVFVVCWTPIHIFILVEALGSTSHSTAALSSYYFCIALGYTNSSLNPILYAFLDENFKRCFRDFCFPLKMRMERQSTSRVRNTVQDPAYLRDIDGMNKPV
T3 sequence (P41143 whole entry): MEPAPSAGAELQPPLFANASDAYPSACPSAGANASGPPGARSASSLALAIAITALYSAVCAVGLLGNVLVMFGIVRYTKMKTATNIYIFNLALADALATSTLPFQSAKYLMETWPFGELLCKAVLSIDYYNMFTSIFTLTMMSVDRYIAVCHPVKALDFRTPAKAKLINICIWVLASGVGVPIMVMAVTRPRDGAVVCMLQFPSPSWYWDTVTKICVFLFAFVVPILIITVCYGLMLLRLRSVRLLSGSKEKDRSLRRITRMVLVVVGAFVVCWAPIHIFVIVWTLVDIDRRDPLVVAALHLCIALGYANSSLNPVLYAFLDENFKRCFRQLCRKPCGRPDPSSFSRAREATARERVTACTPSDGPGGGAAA

In the case of CC1(C)SSC(C)(C)[C@H](NC(=O)[C@@H](N)Cc2ccc(O)cc2)C(=O)NCC(=O)N[C@@H](Cc2ccccc2)C(=O)N2CCN(CC2)C(=O)[C@H](Cc2ccccc2)NC(=O)CNC(=O)[C@H]1NC(=O)[C@@H](N)Cc1ccc(O)cc1 (HELM PEPTIDE1{Y.[Pen].G.F}|PEPTIDE2{Y.[Pen].G.F}|CHEM1{[C1CN([*:2])CCN1[*:1]]}$PEPTIDE1,PEPTIDE2,2:R3-2:R3|PEPTIDE1,CHEM1,4:R2-1:R1|PEPTIDE2,CHEM1,4:R2-1:R2$$$V2.0), the Emax [1] is reported as 86%, the Emax [2] is reported as 62% and the Activity [3] is reported as “inactive”. For the same compound, the Activity [4] was “inactive”, the Activity [5] was “inactive” and the Emax [6] was 206%.

C[C@@H](NC(=O)[C@@H](N)Cc1ccc(O)cc1)C(=O)NCC(=O)N[C@@H](Cc1ccccc1)C(=O)NNC(=O)[C@H](Cc1ccccc1)NC(=O)CNC(=O)[C@@H](C)NC(=O)[C@@H](N)Cc1ccc(O)cc1 [BIPHALIN] gave a Ki [7] of 0.27 µM.

In the case of Cc1cc(O)cc(C)c1C[C@H](N)C(=O)N[C@@H]1CSSC[C@@H](NC(=O)[C@@H](N)Cc2c(C)cc(O)cc2C)C(=O)NCC(=O)N[C@@H](Cc2ccccc2)C(=O)NCCSSCCNC(=O)[C@H](Cc2ccccc2)NC(=O)CNC1=O (I: H-[Dmt][dC]GF / II: H-[Dmt][dC]GF; disulfide I:2-II:2; linker I:C-II:C via Cystamine), the EC50 [8] is reported as 0.0135 µM, the EC50 ([9]; read-out: EC50) is reported as 0.00145 µM and the EC50 [10] is reported as 0.00347 µM. It also gave an Emax [1] of 119%, an Emax [2] of 98% and a Ki [11] of 0.00046 µM. The Activity [3] was “inactive”, the Ki [12] was 0.00027 µM and the Activity [4] was “inactive”. For the same compound, the Activity [5] was “inactive”, the Emax [6] was 106% and the Ki [13] was 0.00087 µM.

N[C@@H](Cc1ccc(O)cc1)C(=O)N[C@@H]1CSSC[C@@H](NC(=O)[C@@H](N)Cc2ccc(O)cc2)C(=O)NCC(=O)N[C@@H](Cc2ccccc2)C(=O)NCCSSCCNC(=O)[C@H](Cc2ccccc2)NC(=O)CNC1=O (HELM PEPTIDE1{Y.[dC].G.F}|PEPTIDE2{Y.[dC].G.F}|CHEM1{[C(CSSCCN[*:2])N[*:1]]}$PEPTIDE1,PEPTIDE2,2:R3-2:R3|PEPTIDE1,CHEM1,4:R2-1:R1|PEPTIDE2,CHEM1,4:R2-1:R2$$$V2.0) was tested, and the EC50 [8] was 0.135 µM, the EC50 ([9]; read-out: EC50) was 0.0269 µM and the EC50 [10] was 0.0871 µM. It also gave an Emax [1] of 90%, an Emax [2] of 99% and a Ki [11] of 0.0041 µM. The Activity [3] was “inactive”, the Ki [12] was 0.0024 µM and the Activity [4] was “inactive”. For the same compound, the Activity [5] was “inactive”, the Emax [6] was 91% and the Ki [13] was 0.018 µM.

Compound Cc1cc(O)cc(C)c1C[C@H](N)C(=O)N[C@@H]1CSSC[C@@H](NC(=O)[C@@H](N)Cc2c(C)cc(O)cc2C)C(=O)NCC(=O)N[C@@H](Cc2ccccc2)C(=O)N2CCN(CC2)C(=O)[C@H](Cc2ccccc2)NC(=O)CNC1=O (I: H-[Dmt][dC]GF / II: H-[Dmt][dC]GF; disulfide I:2-II:2; linker I:C-II:C via Piperazine(1,4-diyl)) has an EC50 [8] of 0.0631 µM, an EC50 ([9]; read-out: EC50) of 0.117 µM and an EC50 ([9]; read-out: pEC50 (converted)) of 0.0117 µM. The EC50 [10] was 0.112 µM, the Emax [1] was 58% and the Emax [2] was 82%. For the same compound, the Ki [11] was 0.002 µM, the Activity [3] was “inactive” and the Ki [12] was 0.0025 µM. For the same compound, the Activity [4] was “inactive”, the Activity [5] was “inactive” and the Emax [6] was 90%. It also gave a Ki [13] of 0.0049 µM.

N[C@@H](Cc1ccc(O)cc1)C(=O)N[C@@H]1CSSC[C@@H](NC(=O)[C@@H](N)Cc2ccc(O)cc2)C(=O)NCC(=O)N[C@@H](Cc2ccccc2)C(=O)N2CCN(CC2)C(=O)[C@H](Cc2ccccc2)NC(=O)CNC1=O (HELM PEPTIDE1{Y.[dC].G.F}|PEPTIDE2{Y.[dC].G.F}|CHEM1{[C1CN([*:2])CCN1[*:1]]}$PEPTIDE1,PEPTIDE2,2:R3-2:R3|PEPTIDE1,CHEM1,4:R2-1:R1|PEPTIDE2,CHEM1,4:R2-1:R2$$$V2.0) gave an EC50 [8] of 0.339 µM, an EC50 ([9]; read-out: EC50) of 0.245 µM and an EC50 [10] of 0.513 µM. For the same compound, the Emax [1] was 54%, the Emax [2] was 92% and the Ki [11] was 0.027 µM. The Activity [3] was “inactive”, the Ki [12] was 0.0089 µM and the Activity [4] was “inactive”. For the same compound, the Activity [5] was “inactive”, the Emax [6] was 77% and the Ki [13] was 0.019 µM.
